The values that follow come from patent publication US20110117208A1, “CHRONIC WOUND TREATMENT” (TECHNOSTICS LIMITED, priority 2008, published 2011).

Test [1] deals with T1, pepsin (Sus scrofa, UniProt P00791).
T1 construct: purchased Sigma-Aldrich Ltd, UK; host or cells: porcine gastric mucosa
Description: Trichloroacetic acid (TCA) precipitation assay, pepsin against haemoglobin. The test is classed as biochemical, porcine. The conditions noted are these: pH 2; FIG. 4. On the procedure:
The TCA assay is based on the method described by M. L. Anson (1938). J General Physiol, 22, 79-89. The substrate, bovine haemoglobin, is digested by pepsin. Any remaining undigested haemoglobin is then precipitated with TCA to yield a supernatant which contains only products of digested haemoglobin. The concentration of haemoglobin breakdown products in the supernatant is measured spectrophotometrically and provides an indication of proteinase activity. The TCA precipitation assay was used to determine the inhibitory effect of polyphosphates and trimetaphosphate on the action of pepsin against haemoglobin.
A series of test solutions containing between 0-306 mg/ml of the proposed inhibitor were prepared. 100 μl of this test solution was then thoroughly mixed with 100 μl of pepsin solution on a vortex mixer before 1500 μl of buffered bovine haemoglobin solution was added and mixed. The inhibitor:enzyme:haemoglobin sample was then incubated in a heated water bath for 30 minutes at 37° C. The samples was then removed from the incubator, mixed with 2.0 ml TCA solution and left to stand for 30 minutes in iced water. […] The absorbance of the supernatant was measured at 280 nm (Labsystems Multiskan Ascent 354, ThermoFisher Scientific, Horsham, West Sussex, UK) using deionised water as a blank. […]

Test [2] addresses T2, elastase (Sus scrofa, UniProt P00772).
T2 construct: Elastase (from porcine pancreas Type I, aqueous); purchased Sigma-Aldrich Ltd, UK; host or cells: porcine pancreas
Put plainly: Elastin Congo red assay. The test is classed as biochemical, porcine. The conditions noted are these: pH 8; FIG. 12, 13, 14. Here is the method:
Elastin Congo red is a commercially available elastin substrate impregnated with the chromophore Congo red. In the presence of elastase the Congo red dye is liberated from the elastin and the resulting colour change can be measured and correlated with elastolytic activity. The elastin Congo red assay was used to determine the inhibitory effect of polyphosphates and trimetaphosphate on the elastase against the elastin Congo red substrate.
A series of test solutions containing between 0-306 mg/ml of the proposed inhibitor were prepared. 100 μl of this test solution was then thoroughly mixed with 100 μl of elastase solution on a vortex mixer. […] of buffered Elastin Congo red solution was then added and mixed. The inhibitor:enzyme:Elastin Congo red sample was then incubated overnight in a heated water bath at 37° C. Samples were then removed from the water bath and placed in iced water to cool for 30 minutes before being centrifuged (Fisher Scientific, accuSpin Model 400 Benchtop Centrifuge) at 13000 rpm for 5 minutes. The absorbance of the supernatant was measured at 540 nm (Labsystems Multiskan Ascent 354, ThermoFisher Scientific, Horsham, West Sussex, UK) using deionised water as a blank. […]

T1 sequence (P00791 60-385): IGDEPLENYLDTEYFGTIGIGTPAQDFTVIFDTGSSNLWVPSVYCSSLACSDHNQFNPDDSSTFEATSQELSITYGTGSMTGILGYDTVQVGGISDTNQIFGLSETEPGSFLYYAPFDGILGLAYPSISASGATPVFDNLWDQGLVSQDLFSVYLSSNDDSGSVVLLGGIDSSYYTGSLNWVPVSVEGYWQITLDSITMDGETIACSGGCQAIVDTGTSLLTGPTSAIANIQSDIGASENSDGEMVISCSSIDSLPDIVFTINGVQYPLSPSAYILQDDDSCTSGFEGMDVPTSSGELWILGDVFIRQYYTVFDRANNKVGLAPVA
T2 sequence (P00772 27-266): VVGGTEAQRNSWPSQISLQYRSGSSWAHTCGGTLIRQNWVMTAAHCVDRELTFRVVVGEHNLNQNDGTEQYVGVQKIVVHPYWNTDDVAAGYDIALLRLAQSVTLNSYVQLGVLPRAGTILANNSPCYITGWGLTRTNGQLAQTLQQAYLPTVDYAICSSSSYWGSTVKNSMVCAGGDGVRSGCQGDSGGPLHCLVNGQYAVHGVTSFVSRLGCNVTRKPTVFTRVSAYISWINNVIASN

`O=P1([O-])OP(=O)([O-])OP(=O)([O-])O1.[Na+].[Na+].[Na+]` [sodium trimetaphosphate]: in test [1], the “inhibition of pepsin (in words)” value is “could also inhibit pepsin across a wide concentration range; however, the potency and extent of inhibition at maximal concentrations was not as large as that observed with polyphosphates”. In addition, the “inhibition of elastase (in words, comparison)” value in test [2] is reported as “could also inhibit elastase across a wide concentration range; however, the extent of inhibition at maximal concentrations was not as large as that observed with polyphosphates”.
